This note sets out measurements from patent US20260374773A1, “MULTI-CYCLIC IRAK AND FLT3 INHIBITING COMPOUNDS AND USES THEREOF” (CHILDREN'S HOSPITAL MEDICAL CENTER, priority 2022, published 2026).

In the first assay the target is T1, FLT3 Autoinh. (Homo sapiens, UniProt P36888).
T1 sequence (P36888 27-993): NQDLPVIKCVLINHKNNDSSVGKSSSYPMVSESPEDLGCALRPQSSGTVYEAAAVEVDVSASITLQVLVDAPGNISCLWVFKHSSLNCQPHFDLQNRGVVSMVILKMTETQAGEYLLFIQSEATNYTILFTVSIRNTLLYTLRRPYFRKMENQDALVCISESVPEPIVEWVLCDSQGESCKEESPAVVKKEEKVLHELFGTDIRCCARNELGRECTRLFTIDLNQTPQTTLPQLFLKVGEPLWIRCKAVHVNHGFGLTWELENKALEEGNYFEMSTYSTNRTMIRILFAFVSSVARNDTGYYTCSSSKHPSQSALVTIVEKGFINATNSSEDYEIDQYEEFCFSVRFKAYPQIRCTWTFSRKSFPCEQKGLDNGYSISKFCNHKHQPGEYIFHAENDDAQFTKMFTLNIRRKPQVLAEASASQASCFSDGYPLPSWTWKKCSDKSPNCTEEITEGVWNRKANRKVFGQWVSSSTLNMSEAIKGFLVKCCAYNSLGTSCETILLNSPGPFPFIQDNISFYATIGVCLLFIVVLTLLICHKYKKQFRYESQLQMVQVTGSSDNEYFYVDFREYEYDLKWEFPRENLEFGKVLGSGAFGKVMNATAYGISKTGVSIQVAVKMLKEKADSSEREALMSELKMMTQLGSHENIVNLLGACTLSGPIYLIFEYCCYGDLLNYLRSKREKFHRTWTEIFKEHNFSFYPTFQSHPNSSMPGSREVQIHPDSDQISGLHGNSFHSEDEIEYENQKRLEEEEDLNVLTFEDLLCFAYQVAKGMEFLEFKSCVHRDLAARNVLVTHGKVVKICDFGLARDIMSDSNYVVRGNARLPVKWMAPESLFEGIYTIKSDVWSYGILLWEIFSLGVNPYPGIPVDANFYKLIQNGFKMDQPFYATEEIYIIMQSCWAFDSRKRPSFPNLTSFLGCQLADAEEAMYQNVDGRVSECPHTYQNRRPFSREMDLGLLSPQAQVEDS
Briefly: DiscoverX KINOMEscan active site-directed competition binding, FLT3 Autoinh. The settings on record: Table 13; no ATP.
Text: (§1) Kinase binding data were obtained for various exemplary compounds prepared according to Examples 1-8 using the DiscoverX KINOMEscan® active site-directed competition binding site-directed assay protocol described below. […] As a result, the data report thermodynamic interaction affinities (Kd values), rather than IC50 values that are dependent on ATP concentrations. The assay uses a DNA-tagged version of the protein kinase, and an immobilized ligand bound to a solid support. Compounds that directly or indirectly prevent kinase binding to the immobilized ligand reduce the amount of kinase captured on the solid support, which is detected using an ultra-sensitive qPCR method. Affinity constants reported from the assay have been reported to be independent of the immobilized ligand used that is coupled to the solid support (See supplemental information in Fabian, M. A. et. al., (2005) Nat. Biotechnol. 23, 329-336; Wodicka, L. M. et. al., (2010) Chem. Biol. 17, 1241-1249.)
Kinase-tagged T7 phage strains were prepared in an E. coli host derived from the BL21 strain. E. coli were grown to log-phase and infected with T7 phage and incubated with shaking at 32 °C until lysis. The lysates were centrifuged and filtered to remove cell debris. The remaining kinases were produced in HEK-293 cells and subsequently tagged with DNA for qPCR detection. Streptavidin-coated magnetic beads were treated with biotinylated small molecule ligands for 30 minutes at room temperature to generate affinity resins for kinase assays. The liganded beads were blocked with excess biotin and washed with blocking buffer (SeaBlock (Pierce), 1% BSA, 0.05% Tween 20, 1 mM DTT) to remove unbound ligand and to reduce non-specific binding. […] Test compounds were prepared as 111x stocks in 100% DMSO. Kds were determined using an 11-point 3-fold compound dilution series with three DMSO control points. All compounds for Kd measurements are distributed by acoustic transfer (non-contact dispensing) in 100% DMSO. The compounds were then diluted directly into the assays such that the final concentration of DMSO was 0.9%. All reactions were performed in polypropylene 384-well plates. Each was a final volume of 0.02 mL. The assay plates were incubated at room temperature with shaking for 1 hour and the affinity beads were washed with wash buffer (1×PBS, 0.05% Tween 20). The beads were then re-suspended in elution buffer (1×PBS, 0.05% Tween 20, 0.5 μM nonbiotinylated affinity ligand) and incubated at room temperature with shaking for 30 minutes. The kinase concentration in the eluates was measured by qPCR. Binding constants (Kds) were calculated with a standard dose-response curve using the Hill equation. The Hill Slope was set to −1. Curves were fitted using a non-linear least square fit with the Levenberg-Marquardt algorithm.
as §1, with “9-12” for “1-8”
Kinase-tagged T7 phage strains were prepared in an E. coli host derived from the BL21 strain. […]
Usually Kd stands for a measure of binding affinity in units of concentration. In turn, `COc1cn2ncc(-c3nc(N[C@H]4CNCC[C@@H]4F)c(C#N)cc3F)c2nc1C1CC1` [Compound 7, 6-(5-cyclopropyl-6-methoxypyrazolo[1,5-a]pyrimidin-3-yl)-5-fluoro-2-(((3S,4S)-4-fluoropiperidin-3-yl)amino)nicotinonitrile] yielded a Kd of 0.68 nM.

As for `COc1cn2ncc(-c3nc(N[C@H]4CNCC[C@@H]4F)c(C#N)cc3F)c2nc1C(C)(C)O` [Compound 10, 5-fluoro-2-(((3S,4S)-4-fluoropiperidin-3-yl)amino)-6-(5-(2-hydroxypropan-2-yl)-6-methoxypyrazolo[1,5-a]pyrimidin-3-yl)nicotinonitrile], the Kd was 5.4 nM. Turning to `COc1cn2ncc(-c3nc(N[C@H]4CNCC[C@@H]4F)c(F)cc3F)c2nc1C(C)(C)O` [Compound 13, 2-(3-(3,5-difluoro-6-(((3S,4S)-4-fluoropiperidin-3-yl)amino)pyridin-2-yl)-6-methoxypyrazolo[1,5-a]pyrimidin-5-yl)propan-2-ol], the dissociation constant Kd was found to be 3.7 nM.

The assay is the same for the next values; noted with them: Table 19; no ATP.
Compound `COc1cn2ncc(-c3nc(N[C@H]4CNCC[C@@H]4F)ncc3F)c2nc1C(C)(C)O` [Compound 6a, 2-(3-(5-fluoro-2-(((3S,4S)-4-fluoropiperidin-3-yl)amino)pyrimidin-4-yl)-6-methoxypyrazolo[1,5-a]pyrimidin-5-yl)propan-2-ol] displayed a Kd of 4.8 nM. Turning to `COc1cn2ncc(-c3ccnc(N[C@H]4CNCC[C@@H]4F)n3)c2nc1C1CC1` [Compound 7a, 4-(5-cyclopropyl-6-methoxypyrazolo[1,5-a]pyrimidin-3-yl)-N-((3S,4S)-4-fluoropiperidin-3-yl)pyrimidin-2-amine], the Kd turned out to be 12 nM.

For `COc1cn2ncc(-c3cncc(N[C@H]4CNCC[C@@H]4F)n3)c2nc1C1CC1` [Compound 12a, 6-(5-cyclopropyl-6-methoxypyrazolo[1,5-a]pyrimidin-3-yl)-N-((3S,4S)-4-fluoropiperidin-3-yl)pyrazin-2-amine], the Kd is 4.6 nM. `COc1cn2ncc(-c3nc(N[C@@H]4CCCNC4)ncc3F)c2nc1C1CC1` [Compound 14a, (R)-4-(5-cyclopropyl-6-methoxypyrazolo[1,5-a]pyrimidin-3-yl)-5-fluoro-N-(piperidin-3-yl)pyrimidin-2-amine] registered a Kd of 1.6 nM. Same read-out and setting: with `COc1cn2ncc(-c3nc(N[C@H]4CNCC[C@@H]4F)ncc3F)c2nc1C1CC1` [Compound 15a, 4-(5-cyclopropyl-6-methoxypyrazolo[1,5-a]pyrimidin-3-yl)-5-fluoro-N-((3S,4S)-4-fluoropiperidin-3-yl)pyrimidin-2-amine] the figure was 1.4 nM.
